Assay results published in patent US7371779B2, “Synergistic compositions of N-acylhomoserine lactones and 4-quinolones” (The Secretary of State for Defense Science and Technology, priority 2001, dated 2008).
Read-outs that look alike come from different tables or passages of the source.

Legend:
murine splenocytes = assay: ConA mitogen-stimulated proliferation of murine splenocytes ([3H]-thymidine incorporation); assay type: cell-based, mouse (BALB/c); details: for IC50: ConA 1 μg/ml, 100,000 spleen cells, Experiment I, read-out: IC50 in inhibition of ConA induced murine splenocyte proliferation
Method: (§1) Proliferation was assessed by the incorporation of [^3H]-thymidine into DNA. Eight-week-old female BALB/c mice were obtained from Harlan (Bicester, Oxon, UK) and given food and water ad libitum. Splenocyte suspensions were prepared by removing the spleens and placing them into RPMI 1640 medium. The spleens were forced through 70-μm-pore-size wire gauzes using the plunger from a 5-ml syringe to produce a single cell suspension. The cells were pelleted by centrifugation, and erythrocytes were lysed with 0.017 M Tris, 0.144 M ammonium chloride buffer, pH 7.2. Leucocytes were washed twice with RPMI 1640 medium with 2% (vol/vol) foetal calf serum (FCS) and resuspended in complete cell culture medium (CTCM) consisting of RPMI 1640 medium with 5% FCS, 2 mM L-glutamine, and 5×10^−5 M 2-mercaptoethanol. HSL compounds were tested at doubling down dilutions ranging from 1 mM to 0.1 μM in a final volume of 200 μl of CTCM, containing ConA (Sigma, Poole, UK) at 1 μg/ml and 100,000 spleen cells. Following incubation for 48 h at 37° C. in 5% CO2-air, 0.25 μCi [^3H]-thymidine (Amersham) in 10 μl volume made up in RPMI 1640 medium was added and the cells were incubated for a further 24 h. Cells were harvested onto fibreglass filters with a Packard filtermate harvester. After the addition of 25 μl of MicroScint-O (Packard) to each well the filters were counted with the Packard TopCount scintillation counter.
(§2) Mitogen (Concanavalin A) induced murine splenocyte proliferation was indicated by the incorporation of tritated thymidine into the DNA in the mouse spleen cells as shown by counts per minute using the scintillation counter. The inhibitory effect of an HSL compound being tested on cell proliferation was indicated by a reduction in counts per minute.
as §1, with “70 μm pore size” for “70-μm-pore-size”, “5 ml” for “5-ml”, “The title compound was” for “HSL compounds were”, “dilutions” for “dilutions ranging from 1 mM to 0.1 μM in a final volume of 200 μl of CTCM,”, “g/ml” for “μg/ml”, “COrair,” for “CO2-air,”
as §2, with “the title” for “an HSL”

human PBMC = assay: ConA mitogen-stimulated proliferation of human PBMC ([3H]-thymidine incorporation); assay type: cell-based; details: Experiment II, read-out: IC50 in inhibition of ConA induced cell proliferation of PBMC
Method: Blood specimens were obtained with consent from healthy human volunteers. Human peripheral blood mononuclear cells (PBMC) were isolated from heparinised whole blood by buoyant density centrifugation over Histopaque 1077 (Sigma, Poole, UK) at 600 g for 20 minutes. PBMC harvested from the ‘buffy’ layers were washed twice with RPMI 1640 medium and resuspended in CTCM. […] Human PBMC were incubated for 48 h at 37° C. in 5% CO2-air, followed by pulsing with 0.25 μCi [^3H]-thymidine (see above). After a further incubation of 24 h cells were harvested onto fibreglass filters and then counted in the presence of MicroScint-O with the Packard TopCount.
Concanavalin induced cell proliferation of human peripheral blood mononuclear cells (PBMC) was tracked, as described in I above, by a measurement of counts per minute using the scintillation counter. The inhibitory effect of an HSL compound being tested on cell proliferation was indicated by a reduction in counts per minute. […] Columns B, C and D represent different sources of human PBMC samples used.
Plots of counts per minute (cpm) against the concentration of the quorum sensing molecules and the vehicle are shown in FIG. 11.

Compound | IC50 (murine splenocytes) | further results
CCCCCCCCC(=O)CC(=O)N[C@H]1CCOC1=O [Example 1, N-(3-oxoundecanoyl)-L-homoserine lactone] | 9 µM | IC50 (human PBMC; human PBMC source B): 63 µM; IC50 (human PBMC; human PBMC source C): 13 µM; IC50 (human PBMC; human PBMC source D): 44 µM
O=C(CCCCCCCCBr)CC(=O)N[C@H]1CCOC1=O [Example 2, N-(11-Bromo-3-oxoundecanoyl)-L-homoserine lactone] | 6 µM | IC50 (human PBMC; human PBMC source B): 18 µM
CC(C)CCCCCCC(=O)CC(=O)N[C@H]1CCOC1=O [Example 3, N-(10-Methyl-3-oxoundecanoyl)-L-homoserine lactone] | 8 µM | IC50 (human PBMC; human PBMC source D): 25 µM
COC(=O)CCCCCCC(=O)CC(=O)N[C@H]1CCOC1=O [Example 4, N-(10-Methoxycarbonyl-3-oxodecanoyl)-L-homoserine lactone] | 73 µM | IC50 (human PBMC; human PBMC source B): 20 µM; IC50 (human PBMC; human PBMC source D): 63 µM
CCCCCC(C)CCC(=O)CC(=O)N[C@H]1CCOC1=O (stereo partly drawn) [Example 5, N-(6-Methyl-3-oxoundecanoyl)-L-homoserine lactone] | 5 µM | IC50 (human PBMC; human PBMC source B): 20 µM
CCCCCCCCCCC(=O)CC(=O)N[C@H]1CCOC1=O [Example 8, N-(3-Oxotridecanoyl)-L-homoserine lactone] | 4 µM | IC50 (human PBMC; human PBMC source B): 41 µM; IC50 (human PBMC; human PBMC source C): 7 µM; IC50 (human PBMC; human PBMC source D): 25 µM
C=CCCCCCCCCC(=O)CC(=O)N[C@H]1CCOC1=O [Example 10, N-(3-Oxo-12-tridecenoyl)-L-homoserine lactone] | 7 µM | –
O=C(CCCCCCCCCCCBr)CC(=O)N[C@H]1CCOC1=O [Example 12, N-(14-Bromo-3-oxotetradecanoyl)-L-homoserine lactone] | 8 µM | –
CCCCCCC=CCCCC(=O)CC(=O)N[C@H]1CCOC1=O [Example 14, N-(3-Oxo-7-tetradecenoyl)-L-homoserine lactone] | 17 µM | –
CCCC=CCCCCCCC(=O)CC(=O)N[C@H]1CCOC1=O [Example 16, N-(3-Oxo-10-tetradecenoyl)-L-homoserine lactone] | 15 µM | –
CCC=CCCCCCCCC(=O)CC(=O)N[C@H]1CCOC1=O [Example 17, N-(3-Oxo-11-tetradecenoyl)-L-homoserine lactone] | 12 µM | –
C=CCCCCCCCCCC(=O)CC(=O)N[C@H]1CCOC1=O [Example 18, N-(3-Oxo-13-tetradecenoyl)-L-lactone homoserine] | 10 µM | –
CN(C)C(=O)CCCCCCCCC(=O)CC(=O)N[C@H]1CCOC1=O [Example 20, N-[11-(N,N-Dimethylcarbamoyl)-3-oxoundecanoyl]-L-homoserine lactone] | 35 µM | –
CCCCCCCCCC(O)CC(=O)N[C@H]1CCOC1=O (stereo partly drawn) [Example 21, N-(3-Hydroxydodecanoyl)-L-homoserine lactone] | 12 µM | –
CCCCCCCCCCCC(O)CC(=O)N[C@H]1CCOC1=O (stereo partly drawn) [Example 22, N-(3-Hydroxytetradecanoyl)-L-homoserine lactone] | 7 µM | –
CCCCCCC=CCCCC(O)CC(=O)N[C@H]1CCOC1=O (stereo partly drawn) [Example 23, N-(3-Hydroxy-7-tetradecenoyl)-L-homoserine lactone] | 12 µM | –
CCCC=CCCCCCCC(O)CC(=O)N[C@H]1CCOC1=O (stereo partly drawn) [Example 25, N-(3-Hydroxy-10-tetradecenoyl)-L-homoserine lactone] | 20 µM | –
CCC=CCCCCCCCC(O)CC(=O)N[C@H]1CCOC1=O (stereo partly drawn) [Example 26, N-(3-Hydroxy-11-tetradecenoyl)-L-homoserine lactone] | 20 µM | –
C=CCCCCCCCCCC(O)CC(=O)N[C@H]1CCOC1=O (stereo partly drawn) [Example 27, N-(3-Hydroxy-13-tetradecenoyl)-L-homoserine lactone] | 18 µM | –
CCCCCC(=O)CC(=O)N[C@H]1CCOC1=O [OOHL, N-(3-oxooctanoyl)-L-homoserine lactone, reference compound] | – | inhibition of ConA induced murine splenocyte proliferation (cpm), in words (murine splenocytes; ConA 1 μg/ml, BALB/c splenocytes): failed to inhibit proliferation
N-(3-Hydroxy-9-tetradecenoyl)-L-homoserine lactone [Example 24] | 15 µM | –
